Results on three compounds are retold here after patent US20240173374A1, “LIPOSOMAL FORMULATIONS OF BORONIC ACID CONTAINING ACTIVE AGENTS” (Ohio State Innovation Foundation, priority 2021, published 2024).

Data set [1] is described as follows: BTZ / boronic acid drug loading into liposomes (UV absorption or HPLC). The data set is classed as physicochemical. The conditions noted are these: tiron-based liposomes, same drug loading protocol. As for the experimental part: Remote loading of BTZ into liposomes encapsulating calcium ascorbate/calcium acetate. Lipids (DSPC/Chol/mPEG-DSPE 60:35:5 mole/mole) were dissolved in chloroform, dried into a thin film on a round-bottom flask and hydrated in 100 mM calcium ascorbate/50 mM calcium acetate (pH 8). The resulting liposomes were subjected to 5 cycles of freezing and thawing and extrusion through a 100-nm pore size polycarbonate membrane in a Lipex extruder at 65 degree. […] External buffer of the liposomes was exchanged to 130 mM NaCl/10 mM histidine (pH 6) by passing through a Sepharose CL-4B column. […] BTZ was dissolved in a small volume of DMSO and added to the liposomes and incubated under stirring at 20-60 degrees for 10-60 min (e.g., 30 min at 50 degree) to facilitate remote loading. BTZ diffuses into the liposomes and forms a complex with ascorbic acid (BTZ-ASC complex), which is negatively charged and partially precipitates intraliposome with calcium, resulting in stable encapsulation of the BTZ. Finally, unencapsulated BTZ was removed from the liposomes by passing through a Sepharose CL-4B column. BTZ concentration in the L-BTZ was determined by UV absorption or by HPLC. […]
Remote loading of BTZ into liposomes containing ascorbyl palmitate (ASC-C16) and encapsulating calcium acetate. […] BTZ concentration in the L-BTZ was determined by UV absorption or by HPLC. […]

A further data set deals with AML murine model. As to conditions: cited from earlier work.
The conditions of data set [2]: AML trial; cited from earlier work.
The test system of data set [3] is NCI-H929 multiple myeloma. Description: Antitumor activity in NCI-H929 multiple myeloma subcutaneous murine xenograft model. Type of data set: in vivo, mice. As to conditions: FIG. 3B. From the text: (3A) anti-tumor effect, (3B) body weight loss, and (3C) survival curves result in vivo.
The conditions of data set [4]: clinical trial for SLE; cited from earlier work.
A short description of data set [5]: Plasma pharmacokinetics of L-BTZ and Velcade in rats after single dose. The data set is classed as in vivo. The conditions noted are these: 0.6 mg/kg, 5 ul/g, plasma BTZ by LC-MS. As for the experimental part: Plasma concentrations were determined by LC-MS. Compared to Velcade, the circulation time L-BTZ was much longer, which subsequently enhances the therapeutic effect and half-life time in vivo.

With `CC(C)C[C@H](NC(=O)[C@@H](NC(=O)c1cccc(-c2ccccc2)n1)[C@@H](C)O)B(O)O` [delanzomib], the drug loading entry in data set [1] is given as “High drug loading”.
The same measure, in the same setting: as for `CC(C)C[C@H](NC(=O)CNC(=O)c1cc(Cl)ccc1Cl)B(O)O` [ixazomib], the entry is “High drug loading”.
`CC(C)C[C@H](NC(=O)[C@H](Cc1ccccc1)NC(=O)c1cnccn1)B(O)O` [free BTZ, Bortezomib]: the “reaching effective dose (limited by toxicity)” value with AML murine model was “cannot reach effective dose”. In data set [2], the “drop out due to neurotoxicity” value is on record as 4/7. Also, the “body weight loss during treatment” value in data set [3] is “no significant body weight loss”. In data set [4], the “dropped out due to side effects” value is 7/12. In data set [5] (i.v.), this compound gave a CLss_F of 18.9 mL/min/kg and a Vz_F of 54.22 L/kg. Besides, in data set [5] (rat, iv), the AUC(0-inf) came to 864 ng·h/mL, the exposure AUC(0-t) worked out at 322 ng·h/mL, the highest level (Cmax) was 45.4 ng/mL and the Tmax stood at 0.25 h. In data set [5] (rat, iv), this compound showed a half-life of 33.1 h.
